Experiments:
Experiment in all cases: KINOMEscan competition binding
Conditions in all cases: compound 10.0 µM
[1] = target: YSK4 (human) (UniProt Q56UN5)
[2] = target: STK17B (human) (UniProt O94768)
[3] = target: MAPK8 (human) (UniProt P45983)
[4] = target: EPHA3 (human) (UniProt P29320)
[5] = target: IRAK1 (human) (UniProt P51617)
[6] = target: LATS2 (human) (UniProt Q9NRM7)
[7] = target: RPS6KA6 KD2 (human) (UniProt Q9UK32)
[8] = target: PTK2B (human) (UniProt Q14289)
[9] = target: DAPK1 (human) (UniProt P53355)
[10] = target: HIPK3 (human) (UniProt Q9H422)
[11] = target: TAOK3 (human) (UniProt Q9H2K8)
[12] = target: CLK1 (human) (UniProt P49759)
[13] = target: YES1 (human) (UniProt P07947)
Sequence of YES1 (human) (P07947 whole entry, looked up): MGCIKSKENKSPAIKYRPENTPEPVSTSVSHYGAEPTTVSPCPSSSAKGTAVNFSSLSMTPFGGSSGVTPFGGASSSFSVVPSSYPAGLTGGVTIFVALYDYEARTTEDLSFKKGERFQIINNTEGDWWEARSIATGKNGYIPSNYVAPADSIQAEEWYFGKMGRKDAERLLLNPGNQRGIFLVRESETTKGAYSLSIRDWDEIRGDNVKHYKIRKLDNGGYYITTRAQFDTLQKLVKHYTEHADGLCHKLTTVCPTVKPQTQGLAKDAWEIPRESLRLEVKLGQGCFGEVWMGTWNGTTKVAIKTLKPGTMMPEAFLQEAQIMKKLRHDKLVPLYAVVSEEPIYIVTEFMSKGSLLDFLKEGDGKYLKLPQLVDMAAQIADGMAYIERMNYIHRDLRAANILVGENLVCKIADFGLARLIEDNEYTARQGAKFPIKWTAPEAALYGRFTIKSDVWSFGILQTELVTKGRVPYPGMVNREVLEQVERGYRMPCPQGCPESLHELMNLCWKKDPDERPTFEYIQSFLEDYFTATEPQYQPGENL

[14] = target: CAMK4 (human) (UniProt Q16566)
[15] = target: CDK13 (human) (UniProt Q14004)
[16] = target: PIP5K1C (human) (UniProt O60331)
[17] = target: CDK19 (human) (UniProt Q9BWU1)
[18] = target: HIPK1 (human) (UniProt Q86Z02)
[19] = target: FGFR2 (human) (UniProt P21802)
[20] = target: PHKG2 (human) (UniProt P15735)
[21] = target: MAPK7 (human) (UniProt Q13164)
[22] = target: MAP3K11 (human) (UniProt Q16584)
Sequence of MAP3K11 (human) (Q16584 whole entry, looked up): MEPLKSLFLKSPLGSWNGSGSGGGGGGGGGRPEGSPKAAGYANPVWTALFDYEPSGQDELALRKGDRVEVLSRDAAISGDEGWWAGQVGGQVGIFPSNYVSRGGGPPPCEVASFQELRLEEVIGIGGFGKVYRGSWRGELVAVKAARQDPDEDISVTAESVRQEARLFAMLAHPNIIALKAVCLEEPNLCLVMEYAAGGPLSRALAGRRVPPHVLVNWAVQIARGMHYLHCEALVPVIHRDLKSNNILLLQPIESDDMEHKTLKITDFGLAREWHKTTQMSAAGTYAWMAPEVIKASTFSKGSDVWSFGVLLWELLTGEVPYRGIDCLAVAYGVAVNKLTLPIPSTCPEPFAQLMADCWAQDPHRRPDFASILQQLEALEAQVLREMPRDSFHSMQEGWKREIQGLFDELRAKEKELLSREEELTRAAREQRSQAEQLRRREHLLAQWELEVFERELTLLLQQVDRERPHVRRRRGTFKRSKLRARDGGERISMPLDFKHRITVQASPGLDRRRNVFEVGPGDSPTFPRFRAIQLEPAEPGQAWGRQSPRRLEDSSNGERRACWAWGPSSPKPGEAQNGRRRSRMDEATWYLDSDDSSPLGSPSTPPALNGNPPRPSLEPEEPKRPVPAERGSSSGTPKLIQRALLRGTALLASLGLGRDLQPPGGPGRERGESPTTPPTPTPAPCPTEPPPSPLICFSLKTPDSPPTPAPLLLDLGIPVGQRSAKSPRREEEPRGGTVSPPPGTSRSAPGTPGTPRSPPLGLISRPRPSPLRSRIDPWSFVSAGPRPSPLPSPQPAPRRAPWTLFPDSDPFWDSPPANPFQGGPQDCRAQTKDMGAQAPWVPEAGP

[23] = target: STK39 (human) (UniProt Q9UEW8)
[24] = target: CDK15 (human) (UniProt Q96Q40)
[25] = target: PRKD3 (human) (UniProt O94806)
[26] = target: NEK6 (human) (UniProt Q9HC98)
Sequence of NEK6 (human) (Q9HC98 whole entry, looked up): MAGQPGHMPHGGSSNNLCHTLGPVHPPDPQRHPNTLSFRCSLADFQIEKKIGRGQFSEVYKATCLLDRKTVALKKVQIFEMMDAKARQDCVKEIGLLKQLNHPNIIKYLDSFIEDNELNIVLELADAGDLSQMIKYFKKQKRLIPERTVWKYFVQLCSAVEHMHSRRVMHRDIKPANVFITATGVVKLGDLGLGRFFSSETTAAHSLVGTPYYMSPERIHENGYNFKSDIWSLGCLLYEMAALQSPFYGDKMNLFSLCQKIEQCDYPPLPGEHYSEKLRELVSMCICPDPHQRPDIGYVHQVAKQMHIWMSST

[27] = target: CSNK2A1 (human) (UniProt P68400)
Sequence of CSNK2A1 (human) (P68400 whole entry, looked up): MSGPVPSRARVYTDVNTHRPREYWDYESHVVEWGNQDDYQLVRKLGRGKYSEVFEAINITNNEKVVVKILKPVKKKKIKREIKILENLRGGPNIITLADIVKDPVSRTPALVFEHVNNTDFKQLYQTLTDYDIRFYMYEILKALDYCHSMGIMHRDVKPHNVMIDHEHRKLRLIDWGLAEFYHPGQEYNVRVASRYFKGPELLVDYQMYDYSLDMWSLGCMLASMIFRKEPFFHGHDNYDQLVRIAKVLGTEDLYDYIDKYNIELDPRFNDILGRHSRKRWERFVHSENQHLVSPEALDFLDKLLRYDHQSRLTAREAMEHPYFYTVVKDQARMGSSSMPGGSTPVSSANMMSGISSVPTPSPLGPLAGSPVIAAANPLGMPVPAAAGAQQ

[28] = target: FLT3 (human) (UniProt P36888)
[29] = target: NTRK3 (human) (UniProt Q16288)
[30] = target: JAK3 JH1 catalytic (human) (UniProt P52333)
[31] = target: STK36 (human) (UniProt Q9NRP7)
[32] = target: PDGFRB (human) (UniProt P09619)
Sequence of PDGFRB (human) (P09619 whole entry, looked up): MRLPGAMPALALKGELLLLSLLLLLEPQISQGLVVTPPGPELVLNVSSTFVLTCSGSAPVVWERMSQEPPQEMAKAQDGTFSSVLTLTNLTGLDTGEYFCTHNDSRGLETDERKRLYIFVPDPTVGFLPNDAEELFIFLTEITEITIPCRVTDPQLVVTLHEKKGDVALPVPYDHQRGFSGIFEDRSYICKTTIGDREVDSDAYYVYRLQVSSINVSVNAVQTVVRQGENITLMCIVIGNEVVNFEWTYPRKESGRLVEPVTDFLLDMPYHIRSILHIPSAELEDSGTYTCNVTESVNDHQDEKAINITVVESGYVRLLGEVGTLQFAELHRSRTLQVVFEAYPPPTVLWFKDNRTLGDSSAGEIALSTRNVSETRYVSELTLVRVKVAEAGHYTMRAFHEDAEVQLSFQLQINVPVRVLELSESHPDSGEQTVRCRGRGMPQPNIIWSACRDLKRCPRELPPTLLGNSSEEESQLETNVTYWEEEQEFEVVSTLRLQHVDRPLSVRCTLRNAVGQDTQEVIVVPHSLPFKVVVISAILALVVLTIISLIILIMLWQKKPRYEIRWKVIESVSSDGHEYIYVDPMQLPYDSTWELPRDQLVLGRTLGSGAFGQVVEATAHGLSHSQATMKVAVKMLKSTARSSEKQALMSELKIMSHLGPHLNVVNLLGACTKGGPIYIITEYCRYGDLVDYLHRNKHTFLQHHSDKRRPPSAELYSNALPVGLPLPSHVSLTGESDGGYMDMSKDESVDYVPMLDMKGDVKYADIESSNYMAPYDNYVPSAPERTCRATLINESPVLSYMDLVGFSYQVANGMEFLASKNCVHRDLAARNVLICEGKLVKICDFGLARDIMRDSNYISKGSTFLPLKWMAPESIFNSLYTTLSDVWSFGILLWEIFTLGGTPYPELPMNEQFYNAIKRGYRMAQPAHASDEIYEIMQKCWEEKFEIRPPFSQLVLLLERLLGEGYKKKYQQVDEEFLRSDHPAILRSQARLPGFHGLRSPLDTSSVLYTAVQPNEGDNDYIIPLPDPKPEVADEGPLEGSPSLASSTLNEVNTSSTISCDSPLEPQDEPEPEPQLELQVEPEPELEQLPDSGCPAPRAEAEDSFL

[33] = target: STK10 (human) (UniProt O94804)
[34] = target: JAK1 JH1 catalytic (human) (UniProt P23458)
[35] = target: MARK3 (human) (UniProt P27448)
[36] = target: STK24 (human) (UniProt Q9Y6E0)
[37] = target: TYK2 JH2 pseudokinase (human) (UniProt P29597)
[38] = target: PHKG1 (human) (UniProt Q16816)
[39] = target: NEK3 (human) (UniProt P51956)
[40] = target: PAK7 (human) (UniProt Q9P286)
[41] = target: SRPK1 (human) (UniProt Q96SB4)

Sequence of IRAK1 (human) (P51617 whole entry, looked up): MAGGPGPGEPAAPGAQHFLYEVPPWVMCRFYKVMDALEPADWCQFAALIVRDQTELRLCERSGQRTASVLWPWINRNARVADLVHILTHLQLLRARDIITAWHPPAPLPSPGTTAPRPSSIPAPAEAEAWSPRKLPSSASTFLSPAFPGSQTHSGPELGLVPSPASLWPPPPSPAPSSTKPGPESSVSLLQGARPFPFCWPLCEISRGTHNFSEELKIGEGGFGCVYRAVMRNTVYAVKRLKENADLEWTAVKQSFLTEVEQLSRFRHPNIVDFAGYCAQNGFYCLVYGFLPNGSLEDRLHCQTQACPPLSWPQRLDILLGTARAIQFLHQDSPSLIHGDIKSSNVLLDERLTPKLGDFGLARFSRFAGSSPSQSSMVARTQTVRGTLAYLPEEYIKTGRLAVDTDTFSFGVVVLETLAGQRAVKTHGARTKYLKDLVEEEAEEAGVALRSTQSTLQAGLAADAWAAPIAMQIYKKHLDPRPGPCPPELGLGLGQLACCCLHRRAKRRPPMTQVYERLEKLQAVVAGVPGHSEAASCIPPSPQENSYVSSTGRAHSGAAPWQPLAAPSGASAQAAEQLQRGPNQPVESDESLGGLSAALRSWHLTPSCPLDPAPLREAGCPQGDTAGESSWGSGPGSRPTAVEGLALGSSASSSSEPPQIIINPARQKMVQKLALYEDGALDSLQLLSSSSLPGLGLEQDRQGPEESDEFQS
Sequence of LATS2 (human) (Q9NRM7 whole entry, looked up): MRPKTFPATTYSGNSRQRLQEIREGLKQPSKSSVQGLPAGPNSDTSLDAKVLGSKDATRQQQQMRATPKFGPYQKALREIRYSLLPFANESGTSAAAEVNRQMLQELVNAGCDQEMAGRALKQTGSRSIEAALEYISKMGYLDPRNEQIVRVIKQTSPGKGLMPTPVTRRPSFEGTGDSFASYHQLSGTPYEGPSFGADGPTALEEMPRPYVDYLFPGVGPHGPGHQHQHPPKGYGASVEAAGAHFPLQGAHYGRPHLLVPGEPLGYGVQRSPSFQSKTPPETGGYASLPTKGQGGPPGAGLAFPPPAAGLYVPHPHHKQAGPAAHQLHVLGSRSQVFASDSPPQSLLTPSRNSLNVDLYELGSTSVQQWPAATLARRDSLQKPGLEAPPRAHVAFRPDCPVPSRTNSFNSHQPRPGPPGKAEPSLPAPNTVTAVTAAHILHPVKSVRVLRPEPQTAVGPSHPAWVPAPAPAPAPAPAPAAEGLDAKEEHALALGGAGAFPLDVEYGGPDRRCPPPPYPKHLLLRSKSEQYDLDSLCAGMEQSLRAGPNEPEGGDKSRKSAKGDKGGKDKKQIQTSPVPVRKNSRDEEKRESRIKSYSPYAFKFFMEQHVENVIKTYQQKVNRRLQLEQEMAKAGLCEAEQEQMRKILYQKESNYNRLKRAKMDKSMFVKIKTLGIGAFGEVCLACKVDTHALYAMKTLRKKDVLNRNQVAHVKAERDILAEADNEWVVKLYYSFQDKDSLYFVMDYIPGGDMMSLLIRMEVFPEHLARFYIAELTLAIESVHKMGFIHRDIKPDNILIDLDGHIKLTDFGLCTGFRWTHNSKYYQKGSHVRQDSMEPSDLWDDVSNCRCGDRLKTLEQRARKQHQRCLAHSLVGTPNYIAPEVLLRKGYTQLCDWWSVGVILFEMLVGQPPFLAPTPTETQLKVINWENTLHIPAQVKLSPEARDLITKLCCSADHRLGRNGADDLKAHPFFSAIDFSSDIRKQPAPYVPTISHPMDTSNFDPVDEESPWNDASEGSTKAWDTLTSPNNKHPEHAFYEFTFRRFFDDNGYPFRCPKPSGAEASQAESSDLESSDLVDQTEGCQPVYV

In the case of CCC(=O)N1CCN(c2ccc(-n3c(=O)ccc4cnc5ccc(-c6cnc7ccccc7c6)cc5c43)cc2C(F)(F)F)CC1, the kinase still bound, per cent of control [1] is reported as 38%, the kinase still bound, per cent of control [2] is reported as 67% and the kinase still bound, per cent of control [3] is reported as 22%. The kinase still bound, per cent of control [4] was 70%, the kinase still bound, per cent of control [5] was 100% and the kinase still bound, per cent of control [6] was 100%. For the same compound, the kinase still bound, per cent of control [7] was 86%, the kinase still bound, per cent of control [8] was 100% and the kinase still bound, per cent of control [9] was 96%. For the same compound, the kinase still bound, per cent of control [10] was 86%, the kinase still bound, per cent of control [11] was 76% and the kinase still bound, per cent of control [12] was 49%. For the same compound, the kinase still bound, per cent of control [13] was 74%, the kinase still bound, per cent of control [14] was 90% and the per cent of control [15] was 80%. It also gave a kinase still bound, per cent of control [16] of 80%, a per cent of control [17] of 1.2% and a kinase still bound, per cent of control [18] of 63%. For the same compound, the kinase still bound, per cent of control [19] was 55%, the kinase still bound, per cent of control [20] was 100% and the kinase still bound, per cent of control [21] was 100%. It also gave a kinase still bound, per cent of control [22] of 69%, a per cent of control [23] of 100% and a per cent of control [24] of 88%. The kinase still bound, per cent of control [25] was 100%, the kinase still bound, per cent of control [26] was 99% and the kinase still bound, per cent of control [27] was 94%. It also gave a kinase still bound, per cent of control [28] of 16%, a kinase still bound, per cent of control [29] of 100% and a kinase still bound, per cent of control [30] of 100%. For the same compound, the kinase still bound, per cent of control [31] was 17%, the kinase still bound, per cent of control [32] was 24% and the kinase still bound, per cent of control [33] was 79%. It also gave a kinase still bound, per cent of control [34] of 82%, a kinase still bound, per cent of control [35] of 100% and a kinase still bound, per cent of control [36] of 100%. It also gave a kinase still bound, per cent of control [37] of 55%, a kinase still bound, per cent of control [38] of 100% and a kinase still bound, per cent of control [39] of 100%. The kinase still bound, per cent of control [40] was 87% and the kinase still bound, per cent of control [41] was 100%.

For COC(=O)Nc1ccc(-c2nc(N3CCOCC3)c3cnn(C4CCN(C(=O)OC)CC4)c3n2)cc1, the kinase still bound, per cent of control [1] was 75%, the kinase still bound, per cent of control [2] was 75% and the kinase still bound, per cent of control [3] was 100%. The kinase still bound, per cent of control [4] was 84%, the kinase still bound, per cent of control [5] was 100% and the kinase still bound, per cent of control [6] was 86%. For the same compound, the kinase still bound, per cent of control [7] was 96%, the kinase still bound, per cent of control [8] was 92% and the kinase still bound, per cent of control [9] was 100%. The kinase still bound, per cent of control [10] was 72%, the kinase still bound, per cent of control [11] was 94% and the kinase still bound, per cent of control [12] was 100%. It also gave a kinase still bound, per cent of control [13] of 97%, a kinase still bound, per cent of control [14] of 100% and a per cent of control [15] of 100%. It also gave a kinase still bound, per cent of control [16] of 100%, a per cent of control [17] of 98% and a kinase still bound, per cent of control [18] of 57%. The kinase still bound, per cent of control [19] was 100%, the kinase still bound, per cent of control [20] was 86% and the kinase still bound, per cent of control [21] was 100%. It also gave a kinase still bound, per cent of control [22] of 97%, a per cent of control [23] of 67% and a per cent of control [24] of 100%. For the same compound, the kinase still bound, per cent of control [25] was 100%, the kinase still bound, per cent of control [26] was 100% and the kinase still bound, per cent of control [27] was 62%. For the same compound, the kinase still bound, per cent of control [28] was 100%, the kinase still bound, per cent of control [29] was 100% and the kinase still bound, per cent of control [30] was 100%. The kinase still bound, per cent of control [31] was 91%, the kinase still bound, per cent of control [32] was 100% and the kinase still bound, per cent of control [33] was 100%. For the same compound, the kinase still bound, per cent of control [34] was 100%, the kinase still bound, per cent of control [35] was 100% and the kinase still bound, per cent of control [36] was 100%. The kinase still bound, per cent of control [37] was 78%, the kinase still bound, per cent of control [38] was 81% and the kinase still bound, per cent of control [39] was 100%. The kinase still bound, per cent of control [40] was 80% and the kinase still bound, per cent of control [41] was 100%.

— the kinase profiling compilation of Christmann-Franck et al. (2016)
